# Experimental data taken from patent publication US20090247495A1, “CU[…] AND USES THEREOF” (priority 2007, published 2009).
# Entries after “also recorded” stand apart in the source; their conditions may differ.
# Key:
# Stat3 = assay: Western blot of Stat3 activation in K562 cells; format: cell-based, human; conditions: 50 μM
# Protocol: K562 leukemia cells were serum starved for 18 hours prior to cucurbitacin B treatment. The cells were incubated at a 75-mm culture flask filled with 10 ml growth medium (RPMI with 10% FBS and 1% PS) at the cell density of 1×10^5 cells/ml in the presence or absence of cucurbitacin B for various time intervals. The drug treatment were terminated by centrifugation at 1500 rpm for 5 minutes and the cells were rinsed twice with phosphate-buffered saline and lysed at 4° C. in a lysis buffer containing 50 mM Tris-HCl, pH7.5, […], 5 mM EDTA, 40 mM NaP2O7, 1% Triton X-100, 1 mM dithiothreitol, 200 μM Na3VO4, 100 μM phenylmethysufonyl fluoride, 2 μg/ml leupeptin, 4 μg/ml aprotinin and 0.7 μg/ml pepstatin. The insoluble protein lysate were removed by centrifugation for 10 minutes at 13000 rpm. Fifteen micrograms of protein lysate was resolved using SDS-polyacryamide gel electrophoresis (PAGE) (usually 8%-12% polyacrylamide gel) and then subjected to western blot anaylsis. Western blots were performed with antibodies specific for phosphorylated and total Stat3, c-Raf, Mek, and Erk. The blots were developed with the Enhanced Chemiluminescence Plus (ECL Plus) detection system (Amersham). • 6.1.7 GTPase Pull-Down Assay
# 15 μg cell lysate of each sample was separated in 8% SDS-PAGE followed by immuno-blotting with anti-Stat3 antibodies to detect the phosphorylated form of Stat3 as well as its total expression level.
# Cells were serum starved for 18 hours followed by treated with 50 μM cucurbitacin B for 10 minutes, 30 minutes, 1 hour and 4 hours, respectively. 15 μg cell lysate of each sample was separated in 8% SDS-PAGE followed by immuno-blotting with anti-Stat3 antibodies to detect the phosphorylated form of Stat3 as well as its total expression level.
# K562 cells = assay: Flow cytometry for cell cycle analysis, K562; format: cell-based, human; conditions: 80 nM, 48 hours, serum starved 24 hours
# Protocol: K562 cells were serum starved for 24 hours prior to cucurbitacin B treatment. After 48 hours of treatment, the cells were collected and rinsed twice with phosphate-buffer saline and fixed with 80% ice-cold ethanol for […]. Then, the cells were stained with propidium iodine at 1 mg/ml for 15 minutes at room temperature. The stained cells were analyzed by flow cytometry (FACS Calibur BD Flow Cytometer) • 6.1.6 Western Blot Analysis
# Appropriate numbers of cell density were serum starved for 24 hours prior to treatment with different doses of cucurbitacin B for 2 days. The cell cycle analysis profile of K562 cells after cucurbitacin B treatment were detected using Flow Cytometry analysis after fixed with 80% ice-cold ethanol at 4° C. and then stained with PI for 15 minutes.
# [1] = system: Human liver cancer cell lines HepG2; assay: MTT cytotoxicity assay, matrix combination of CuB and Sb on liver cancer cells; format: cell-based; conditions: HepG2, 2 days, Sb 0 μM
# Protocol: Human liver cancer cell lines HepG2 was purchased from American Type Culture Collection (ATCC, Manassas, Va., USA). The cells were cultured in RPMI 1640 medium supplemented with 5% (v/v) fetal bovine serum (FBS) and 100 units/ml penicillin and streptomycin (Invitrogen Life Technologies) in a humidified 5% CO2 atmosphere at 37° C.
# A total of 1×10^4 cells were seeded into a 96-well plate for 24 hours prior to drug treatment. They were then treated with different dosages (a multiple of 20-fold of IC50 values) of CuB or Sb for 48 hours. After the treatment, 20 μl of MTT (5 mg/ml) was added to each well and incubated for 4 hrs. Then the medium was discarded and 100 μl of dimethyl sulfoxide was added. The absorbance at 570 nm was then measured by using FLUOstar OPTIMA equipment (BMG, LABTECH GmbH, Germany). The percentage of inhibition against different dosages of CuB or Sb were plotted using the Prism software and the 50% inhibition concentration (IC50) were obtained.
# The cells were then treated for 2 days and the % inhibition of growth is determined.
# The excess over Bliss additivism may be calculated using the following formula and shown in Table 4: • Bliss Additivism: Combined response=CuB+Sb−(CuB)(Sb) where each effect is expressed as fractional inhibition between 0 and 1 • Excess over additivism=observed response−combined response
# Ras-GTP = assay: GTPase pull-down assay (GST-Raf1-RBD) in K562 cells; format: cell-based, human; conditions: 50 μM, 2 minutes to 4 hours
# Protocol: Lysate with 500 μg protein were used to determined the Ras-GTP content by the Glutathione S-transferase(GST)-RBD(Ras-binding domain of Raf) pull down assay. The treated and control cells were lysed in lysis buffer (25 mMTris-HCl, pH7.5, 150 mM NaCl, 5 mM MgCl2, 1% NP-40, 1 mM DTT and 5% glycerol) for 5 minutes at 4° C. Soluble cell lysates were obtained by centrifuged at 17000 g for 5 minutes. 500 μg cell lysate were collected and incubated with 80 μg GST-Raf1-RBD in 50 mM Tris-HCl, pH7.2, 150 mM NaCl, 0.5% Triton X-100, 5 mM MgCl2, 1 m MDTT and 10% glycerol for 1 hour at 4° C. The beads were washed with lysis buffer for 3 times and then resuspended and boiled in 2×sample buffer at 100° C. for 5 minutes. 25 μsupernatants were collected by centrifuged at 7200 g for 2 minutes and then resolved in 15% SDS-PAGE followed by western blot analysis using anti-Ras antibody. • 6.1.8 Laboratory-Scale Preparation of Cucurbitacin B and Cucurbitacin D
# In order to further investigate if cucurbitacin B block the Stat3 activation is truly through Erk pathway in K562 cells, the ability of cucurbitacin B to inhibit the Ras/Raf/Mek/Erk pathway was determined by measuring Ras-GTP, phosphorylation of c-Raf, Mek1/2, Erk1/2 and Elk-1 in K562 cells. The cells were incubated with 50 μM cucurbitacin B for the indicated time intervals (2 minutes, 5 minutes, 10 minutes, 30 minutes, 1 hour and 4 hours). […]
smiles,measurement,setting,value
CC(=O)OC(C)(C)/C=C/C(=O)[C@](C)(O)C1[C@H](O)C[C@@]2(C)C3CC=C4C(C[C@H](O)C(=O)C4(C)C)[C@]3(C)C(=O)C[C@]12C (some centres unmarked) [cucurbitacin B],inhibition on Stat3 activation,Stat3; 10 minutes to 30 minutes,No significant change
same,inhibition effect on Stat3 activation,Stat3; 1 hour to 4 hours,gradually increased at 1 hours and peak at 4 hours; also recorded: inhibited Stat3 phosphorylation
same,Stat3 activation (phosphorylated Stat3),Stat3; 4 hours,significant inhibited
same,percentage in the G2/M phase,K562 cells,70%
same,% inhibition,[1]; CuB 0.056 μM,25.89%
same,Excess over Bliss additivism,[1]; CuB 0.056 μM,0
same,Excess over Highest Single Agent Model,[1]; CuB 0.056 μM,0
same,% inhibition,[1]; CuB 0.167 μM,41.93%
same,Excess over Bliss additivism,[1]; CuB 0.167 μM,0
same,Excess over Highest Single Agent Model,[1]; CuB 0.167 μM,0
same,% inhibition,[1]; CuB 0.5 μM,37.94%
same,Excess over Bliss additivism,[1]; CuB 0.5 μM,0
same,Excess over Highest Single Agent Model,[1]; CuB 0.5 μM,0
same,% inhibition,[1]; CuB 1.5 μM,39.01%
same,Excess over Bliss additivism,[1]; CuB 1.5 μM,0
same,Excess over Highest Single Agent Model,[1]; CuB 1.5 μM,0
same,% inhibition,[1]; CuB 4.5 μM,36.57%
same,Excess over Bliss additivism,[1]; CuB 4.5 μM,0
same,Excess over Highest Single Agent Model,[1]; CuB 4.5 μM,0
same,Ras-GTP activation,Ras-GTP,no significant change
